In ChEMBL document CHEMBL6071155, “Discovery of selective Orai channel blockers bearing an indazole or a pyrazole scaffold” (Eur J Med Chem, 2024):
Calls of active or inactive are those of the source. No cut-off for these calls is given here.

What was measured:
Jurkat T = assay: Inhibition of NFAT (unknown origin) activation transfected in human Jurkat T cells expressing firefly luciferase gene at 10 uM preincubated with compound for 30 mins followed by PMA/ionomysin addition and measured after 18 hrs by luminometer relative to control; assay type: cell-based; settings: time 18.5 hrs
[1] = test system: Calcium release-activated calcium channel protein 1 (Homo sapiens), Q96D31 [G98S]; assay: Reversible inhibition of myc-tagged human Orai-1 G98S mutant expressed in HEK293 cells assessed as reduction in inward current at 10 uM measured upto 6 mins by patch clamp electrophysiology; assay type: cell-based
Calcium release-activated calcium channel protein 1 (Homo sapiens), Q96D31 [G98S], sequence (Q96D31 whole entry G98S): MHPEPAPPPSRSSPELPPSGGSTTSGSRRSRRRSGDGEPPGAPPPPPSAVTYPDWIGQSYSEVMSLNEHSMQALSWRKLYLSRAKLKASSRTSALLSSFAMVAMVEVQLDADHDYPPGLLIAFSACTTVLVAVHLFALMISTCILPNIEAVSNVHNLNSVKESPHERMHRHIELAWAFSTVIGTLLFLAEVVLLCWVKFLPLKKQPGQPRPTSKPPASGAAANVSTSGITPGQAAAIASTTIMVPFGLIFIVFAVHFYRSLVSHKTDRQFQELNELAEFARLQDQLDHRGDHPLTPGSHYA

[2] = test system: Calcium release-activated calcium channel protein 1 (Homo sapiens), Q96D31 [G98S]; assay: (§1) Inhibition of myc-tagged human orai-1 G98S mutant expressed in HEK293 cells assessed as decrease in inward current by patch clamp electrophysiology technique; assay type: cell-based; settings: dose 1-30 µM
[3] = target: Calcium release-activated calcium channel protein 1 (Homo sapiens, UniProt Q96D31, G98S); assay: as §1; assay type: cell-based
Calcium release-activated calcium channel protein 1, sequence (Q96D31 whole entry G98S): as above

[4] = test system: Calcium release-activated calcium channel protein 1 (Homo sapiens), Q96D31 [G98S]; assay: Inhibition of myc-tagged human orai-1 G98S mutant expressed in HEK293 cells assessed as decrease in inward current at 30 uM by patch clamp electrophysiology technique relative to control; assay type: cell-based
[5] = target: Transient receptor potential cation channel subfamily M member 4 (Homo sapiens) (UniProt Q8TD43); assay: Activation of GFP-tagged human TRPM4 transfected in HEK293 cells at 30 uM by patch clamp electrophysiology; assay type: cell-based
Transient receptor potential cation channel subfamily M member 4 (Homo sapiens), sequence (Q8TD43 whole entry): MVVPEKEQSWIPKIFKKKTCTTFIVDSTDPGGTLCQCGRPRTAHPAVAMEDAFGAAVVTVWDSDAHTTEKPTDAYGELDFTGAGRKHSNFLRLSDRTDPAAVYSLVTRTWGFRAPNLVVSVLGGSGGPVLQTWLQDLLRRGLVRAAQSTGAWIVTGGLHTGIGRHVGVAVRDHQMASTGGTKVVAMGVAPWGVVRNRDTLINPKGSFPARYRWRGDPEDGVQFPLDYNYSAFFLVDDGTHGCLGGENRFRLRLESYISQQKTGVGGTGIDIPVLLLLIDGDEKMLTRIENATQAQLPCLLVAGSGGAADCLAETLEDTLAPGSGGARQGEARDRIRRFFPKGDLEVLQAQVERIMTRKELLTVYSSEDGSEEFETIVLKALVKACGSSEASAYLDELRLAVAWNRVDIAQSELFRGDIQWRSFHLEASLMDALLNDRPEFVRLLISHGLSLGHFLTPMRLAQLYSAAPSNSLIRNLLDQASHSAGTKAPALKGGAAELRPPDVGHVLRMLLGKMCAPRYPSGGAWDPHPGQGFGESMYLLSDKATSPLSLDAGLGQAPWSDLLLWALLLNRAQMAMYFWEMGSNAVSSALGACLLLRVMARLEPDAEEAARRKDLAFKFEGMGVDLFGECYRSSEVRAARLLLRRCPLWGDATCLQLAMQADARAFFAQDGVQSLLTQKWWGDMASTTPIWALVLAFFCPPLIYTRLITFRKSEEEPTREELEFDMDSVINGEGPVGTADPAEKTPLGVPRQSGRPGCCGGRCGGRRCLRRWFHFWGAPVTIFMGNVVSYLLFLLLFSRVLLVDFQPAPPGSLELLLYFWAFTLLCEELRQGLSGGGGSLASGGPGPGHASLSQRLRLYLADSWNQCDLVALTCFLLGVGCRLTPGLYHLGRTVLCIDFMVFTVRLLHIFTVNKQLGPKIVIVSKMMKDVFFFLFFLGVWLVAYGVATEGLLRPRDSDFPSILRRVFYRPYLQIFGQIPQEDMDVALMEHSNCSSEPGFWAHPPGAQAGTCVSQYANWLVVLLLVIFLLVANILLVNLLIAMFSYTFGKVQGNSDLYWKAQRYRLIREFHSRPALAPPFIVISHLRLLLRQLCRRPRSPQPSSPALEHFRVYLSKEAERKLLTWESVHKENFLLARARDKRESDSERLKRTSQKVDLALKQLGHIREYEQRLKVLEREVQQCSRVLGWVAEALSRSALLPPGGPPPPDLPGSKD

[6] = target: Transient receptor potential cation channel subfamily M member 7 (Homo sapiens) (UniProt Q96QT4); assay: Activation of TRPM7 in human Jurkat T cells at 30 uM by patch clamp electrophysiology; assay type: cell-based
Transient receptor potential cation channel subfamily M member 7 (Homo sapiens), sequence (Q96QT4 whole entry): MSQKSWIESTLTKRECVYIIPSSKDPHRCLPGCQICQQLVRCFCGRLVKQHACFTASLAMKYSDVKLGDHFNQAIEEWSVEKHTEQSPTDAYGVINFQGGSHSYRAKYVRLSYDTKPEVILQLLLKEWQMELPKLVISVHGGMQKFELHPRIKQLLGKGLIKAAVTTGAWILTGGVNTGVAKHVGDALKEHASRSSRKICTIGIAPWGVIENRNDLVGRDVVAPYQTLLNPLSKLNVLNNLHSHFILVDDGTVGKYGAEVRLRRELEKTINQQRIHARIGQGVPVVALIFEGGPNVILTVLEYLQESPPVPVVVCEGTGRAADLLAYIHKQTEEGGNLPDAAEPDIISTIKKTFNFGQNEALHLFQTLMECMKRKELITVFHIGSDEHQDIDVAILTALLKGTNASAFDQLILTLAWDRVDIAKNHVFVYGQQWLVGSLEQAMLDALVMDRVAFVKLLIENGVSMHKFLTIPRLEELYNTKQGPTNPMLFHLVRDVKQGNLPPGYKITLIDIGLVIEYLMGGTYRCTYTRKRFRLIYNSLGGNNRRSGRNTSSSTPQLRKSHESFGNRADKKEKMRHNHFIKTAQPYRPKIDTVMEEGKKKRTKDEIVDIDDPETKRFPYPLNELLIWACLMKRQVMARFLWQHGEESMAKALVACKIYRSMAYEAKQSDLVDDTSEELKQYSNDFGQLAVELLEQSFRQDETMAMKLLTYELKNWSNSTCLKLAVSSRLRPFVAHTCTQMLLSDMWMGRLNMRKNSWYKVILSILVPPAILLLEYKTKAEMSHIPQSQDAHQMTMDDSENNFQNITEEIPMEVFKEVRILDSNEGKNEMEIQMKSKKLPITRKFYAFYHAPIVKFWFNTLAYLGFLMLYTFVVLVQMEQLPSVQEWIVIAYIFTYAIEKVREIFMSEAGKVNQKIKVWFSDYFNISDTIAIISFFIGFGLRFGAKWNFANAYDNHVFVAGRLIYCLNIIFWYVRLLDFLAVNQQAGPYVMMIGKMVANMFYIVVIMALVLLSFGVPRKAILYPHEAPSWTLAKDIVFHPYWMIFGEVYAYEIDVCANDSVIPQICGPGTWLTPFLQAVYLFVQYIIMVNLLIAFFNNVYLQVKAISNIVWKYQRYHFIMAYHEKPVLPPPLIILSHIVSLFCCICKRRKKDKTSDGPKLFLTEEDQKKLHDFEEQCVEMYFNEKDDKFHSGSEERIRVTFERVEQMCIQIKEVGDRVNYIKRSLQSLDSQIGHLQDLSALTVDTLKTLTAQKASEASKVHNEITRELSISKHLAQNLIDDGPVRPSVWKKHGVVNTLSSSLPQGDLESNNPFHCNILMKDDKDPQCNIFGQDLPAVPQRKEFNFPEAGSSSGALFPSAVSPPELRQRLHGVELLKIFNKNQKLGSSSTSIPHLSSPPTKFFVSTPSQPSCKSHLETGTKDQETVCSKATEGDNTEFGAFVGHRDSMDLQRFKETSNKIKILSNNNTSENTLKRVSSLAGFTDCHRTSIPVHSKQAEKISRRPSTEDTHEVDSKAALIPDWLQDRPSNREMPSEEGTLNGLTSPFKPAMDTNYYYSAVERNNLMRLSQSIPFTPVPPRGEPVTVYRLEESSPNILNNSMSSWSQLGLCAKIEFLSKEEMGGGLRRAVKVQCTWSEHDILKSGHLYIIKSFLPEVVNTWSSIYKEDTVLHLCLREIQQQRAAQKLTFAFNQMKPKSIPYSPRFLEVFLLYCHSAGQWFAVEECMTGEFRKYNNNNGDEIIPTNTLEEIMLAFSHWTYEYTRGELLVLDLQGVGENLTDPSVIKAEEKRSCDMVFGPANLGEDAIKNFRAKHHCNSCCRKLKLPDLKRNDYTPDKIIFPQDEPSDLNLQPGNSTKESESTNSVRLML

[7] = (§2) Inhibition of Store-operated calcium entry (SOCE) in phytohemagglutinin-stimulated human Jurkat T cells in presence of Ca2+ by fura-2 dye based calcium imaging analysis; assay type: functional, cell-based
Jurkat [8] = assay: as §2; assay type: functional, cell-based
[9] = Inhibition of Store-operated calcium entry (SOCE) in phytohemagglutinin-stimulated human Jurkat T cells at 30 uM in presence of Ca2+ by fura-2 dye based calcium imaging analysis relative to control; assay type: functional
Jurkat [10] = assay: Cytotoxicity against human Jurkat T cells assessed as decrease in cell viability at 30 uM incubated for 48 hrs by trypan blue exclusion method; assay type: toxicity, cell-based
[11] = target: Transient receptor potential cation channel subfamily M member 4 (Homo sapiens) (UniProt Q8TD43); assay: Activation of GFP-tagged human TRPM4 transfected in HEK293 cells at 10 uM by patch clamp electrophysiology; assay type: cell-based; settings: filed as opener
Jurkat [12] = assay: Cytotoxicity against human Jurkat T cells assessed as cell killing at 30 uM incubated for 48 hrs by trypan blue exclusion method relative to control; assay type: toxicity, cell-based

Structure (SMILES): O=C(Nc1ccncc1F)c1nn(CC2CCC2)c2c1CCCC2
- inhibition (Jurkat T): 92.8%

Structure (SMILES): Cc1cnccc1NC(=O)c1nn(CC2CC2)c2ccccc12
- inhibition (Jurkat T): 86.9%

Structure (SMILES): O=C(Nc1ccncc1F)c1nn(CC2CC2)c2ccccc12
- inhibition (Jurkat T): 97.9%
- inhibition [1]: Active
- inhibition [2]: Dose-Dependent Effect
- IC50 [3]: 4.9 µM
- inhibition [4]: 100%
- Activity [5]: inactive
- Activity [6]: inactive
- IC50 [7]: 10 µM
- inhibition (Jurkat [8]): Dose-Dependent Effect
- inhibition at 30 µM [9]: 100%
- Activity (Jurkat [10]): Non-Toxic

Structure (SMILES): O=C(Nc1ccncc1F)c1nn(CC2CC2)c2ncccc12
- inhibition (Jurkat T): 64.6%
- inhibition [1]: Active

Structure (SMILES): Cc1cnccc1NC(=O)c1nn(CC2CCC2)c2ccccc12
- inhibition (Jurkat T): 92.4%

Structure (SMILES): O=C(Nc1ccncc1F)c1nn(CC2CCCC2)c2ccccc12
- inhibition (Jurkat T): 95.4%

Structure (SMILES): Cc1nnsc1C(=O)Nc1ccc(-n2nc(C(F)(F)F)cc2C(F)(F)F)cc1
- Activity [11]: Active
- Activity (Jurkat [12]): ~ 80%

Structure (SMILES): O=C(Nc1ccncc1F)c1nn(CC2CC2)c2cc(Cl)ccc12
- inhibition (Jurkat T): 51.9%

Structure (SMILES): O=C(Nc1ccncc1F)c1nn(CC2CC2)c2cc(F)ccc12
- inhibition (Jurkat T): 96.1%

Structure (SMILES): O=C(Nc1c(F)cccc1F)c1ccn(CC2CC2)n1
- inhibition (Jurkat T): inactive

Structure (SMILES): Cc1cnccc1NC(=O)c1nn(CC2CC2)c2c1CCC2
- inhibition (Jurkat T): 55.5%

Structure (SMILES): Cc1ccc2c(c1)c(C(=O)Nc1ccncc1F)nn2CC1CC1
- inhibition (Jurkat T): 81.9%

Structure (SMILES): O=C(Nc1ccncc1F)c1nn(CC2CC2)c2c1CCC2
- inhibition (Jurkat T): 63.6%

Structure (SMILES): Cc1cnccc1NC(=O)c1nn(CC2CCC2)c2c1CCCC2
- inhibition (Jurkat T): 92.6%

Structure (SMILES): O=C(Nc1ccncc1F)c1nn(CC2CCC2)c2ccccc12
- inhibition (Jurkat T): 80.5%

Structure (SMILES): O=C(Nc1ccncc1F)c1nn(CC2CC2)c2c1CCCC2
- inhibition (Jurkat T): 87.3%

Structure (SMILES): O=C(Nc1ccncc1F)c1nn(CC2CC2)c2ccc(Br)cc12
- inhibition (Jurkat T): 58.6%

Structure (SMILES): O=C(Nc1ccncc1F)c1nn(CC2CC2)c2ccc(F)cc12
- inhibition (Jurkat T): 77.3%

Structure (SMILES): O=C(Nc1ccncc1F)c1nn(C(=O)C2CC2)c2ccccc12
- inhibition (Jurkat T): 76.8%

Structure (SMILES): O=C(Nc1ccncc1F)c1nn(CC2CCCCC2)c2ccccc12
- inhibition (Jurkat T): 88.4%

Structure (SMILES): Cc1cnccc1NC(=O)c1ccn(CC2CC2)n1
- inhibition (Jurkat T): 61.3%

Structure (SMILES): O=C(Nc1ccncc1F)c1ccn(CC2CC2)n1
- inhibition (Jurkat T): 60.2%

Structure (SMILES): O=C(Nc1c(F)cccc1F)c1nn(CC2CC2)c2c1CCCC2
- inhibition (Jurkat T): 53.9%

Structure (SMILES): Cc1cnccc1NC(=O)c1nn(CC2CC2)c2c1CCCC2
- inhibition (Jurkat T): 88.7%

Structure (SMILES): O=C(Nc1ccncc1F)c1nn(CC2CC2)c2c(F)cccc12
- inhibition (Jurkat T): 48.5%
